# Laboratory results as given in patent US7033829B2, “Method to inhibit cell growth using oligonucleotides” (Trustees of Boston University, priority 2000, dated 2006).
# Oligonucleotides are written 5' to 3', each unit as a sugar letter and its base; * is a phosphorothioate linkage, no mark a phosphodiester; rarer units and linkages stand in square brackets, end groups in braces. Plain capitals give the bases only. d = 2'-deoxy (DNA); {P} = phosphate
# What was measured:
# [1] = system: mitochondrial enzymes ATPase, cytochrome c oxidase and NADH dehydrogenase genes; test: DNA microarray / RT-PCR / northern of mitochondrial genes in SCC12F; type: cell-based, human
# From the text: Exposure of keratinocytes to UVB irradiation affects the expression of genes involved in cell cycle arrest, DNA repair and cytokine production. Single-stranded oligonucleotides sharing sequence homology with the telomere 3′ overhang, when introduced into cells, mimic these UV effects. To identify other genes that may be similarly modulated, cells of keratinocyte origin (SCC12F; a human epidermal squamous cell carcinoma line provided by Dr. James Rheinwald of Harvard University) were exposed to solar simulated irradiation (SSR) (20 mJ/cm^2, measured at 285±5 nm), to an 11-base oligonucleotide (pGTTAGGGTTAG; SEQ ID NO:5) homologous to the telomere overhang (T-oligo), or to a complementary sequence as control [pCTAACCCTAAC; (SEQ ID NO:9) control oligonucleotide]. […] These are mitochondrial-transcribed genes whose encoded proteins participate in cellular respiration.
# [2] = system: p53-null osteosarcoma cell line (Saos-2); test: FACS cell cycle analysis of Saos-2 cells; type: cell-based, human; conditions: 40 μM; 48 hours
# From the text: In order to determine whether these oligonucleotides similarly affect other human cell types and to investigate the role of p53, we treated a squamous cell carcinoma line (SCC12F) (Rheinwald, J. G., et al., 1983, Human carcinogenesis. pp. 86–96. Academic Press (New York)) that over-expresses a presumptively mutated p53 (Eller, M. S. and B. A. Gilchrest. 2000, Pigment Cell Res. 13: 94–97) and a p53-null osteosarcoma cell line (Saos-2) (Wang, L. H., et al., 1998, Anticancer Res 18: 321–325) with either diluent alone, 11mer-1, 11mer-2 or 11mer-3. Cultures were analyzed by FACS after 48 hours (FIGS. 33A–33H). […] Although the percentage of cells in the S-phase in 11mer-1-treated SCC12F and Saos-2 cells was virtually identical (53±6% and 52±1%, respectively), the G0/G1 and G2/M content of the two cell types were somewhat different. This may reflect differential uptake of the oligonucleotide leading to dose-dependent differences, and/or different pathways acting in these cells to control the cell cycle. No apoptotic response to the oligonucleotides was detected in either cell type within 72 hours.
# [3] = system: tumor necrosis factor alpha gene (TNFα); test: Northern blot of TNFα in keratinocytes; type: cell-based, human; conditions: 24–72 hours
# From the text: This immunomodulatory cytokine, known to be induced by UV irradiation, may thus be induced by T2. Use of locally applied DNA fragments, deoxynucleotides, dinucleotides, or dinucleotide dimers is useful in immunomodulation of cutaneous reactions and in treatment or prevention of diseases or conditions involving immune mediators.
# TNF-α gene = test: TNFα promoter CAT reporter transgene in skin; type: in vivo, mice; conditions: intracutaneous pTpT 100 μM; LPS 1 μg/ml
# Procedure: In another experiment, TNF-α gene activation was measured by utilizing mice carrying a CAT reporter transgene bearing the entire TNFα promoter and 3′-untranslated region. Transgenic mice were subjected to the following treatment prior to skin assay for CAT expression: UVB irradiation (200–700 J/m^2), intracutaneous injection of pTpT (100 μM); lipopolysaccharide (LPS 1 μg/ml) as positive control, or vehicle alone.
Substance,downregulation of 8 genes (microarray) [1],genes downregulated as early as ([1]; RT-PCR and northern blot),cells in the S-phase [2],TNFα gene expression (Northern blot) [3],CAT activity in skin (TNF-α gene)
pGTTAGGGTTAG (DNA {P}-dGdTdTdAdGdGdGdTdTdAdG) [SEQ ID NO: 5],> 50%,48 h,52±1%,–,–
thymidine dinucleotide [pTpT],–,–,–,induction of the tumor necrosis factor alpha gene,CAT activity was detected
